Reference: patent US11911439B2, “Beta-casein A2 and prevention of inflammation of the bowel” (THE A2 MILK COMPANY LIMITED, priority 2013, dated 2024)
Substitutions are numbered along the chain they refer to. Where a SMILES comes first, the peptide text is derived from it.

How the values were obtained:
[1] = system: Caco-2 Gut epithelial cells; conditions: read-out: IC50 inhibition of cysteine uptake; GI epithelial cells
Method: (§1) Pre-treatment in cells was performed for different time points for 30 min, 4, 24 and 48 h as described previously (Trivedi M., et al.; Mol. Pharm., 2014). Briefly, SH-SY5Y human neuronal cells and Caco-2 Gut epithelial cells were plated in six-well plates and were pretreated with drugs and incubated for various times prior to measuring uptake. Media were aspirated and cells were washed with 600 μL of HBSS at 37° C. Non-radioactive HBSS was aspirated, replaced with 600 μL of 37° C. HBSS containing [^35S]-cysteine, (1 μCi/1 mL), 10 μM unlabelled cysteine and 100 μM DTT, and the cells were incubated for 5 min. The [^35S]-cysteine/HBSS mixture was aspirated and treatment was terminated by two washes with ice-cold HBSS. Cells were then lysed with 600 μL of dH2O, scraped, collected in 1.5 mL microcentrifuge tubes, and sonicated for 10 s. 100 μL of each sample was aliquoted for protein assay. 200 μL of each sample (in triplicate) was aliquoted into scintillation vials with 4 mL of scintillation fluid, vortexed, and counted for radioactivity, normalized against protein content. […] Each * symbol in these Figures indicates a statistically significant difference (p<0.05) compared against the untreated control, and each #symbol indicates a statistically significant difference (p<0.005) compared against the untreated control.

[2] = system: SH-SY5Y human neuronal cells
Method: as §1

[3] = system: SH-SY5Y neuronal cells; test: Intracellular cysteine, GSH and methylation metabolites by HPLC; type: cell-based, human
Method: Briefly, SH-SY5Y neuronal cells were grown to confluence in α-MEM. Media was aspirated and the cells were washed twice with 1 mL of ice cold HBSS. HBSS was aspirated and 0.6 mL ice cold dH2O was added to the cells. The cells were scraped from the flask/dish and suspended in dH2O. The cell suspension was sonicated for 15 s on ice and 100 μL of the suspension was used to determine the protein content. The remaining lysate was added to a microcentrifuge tube and an equal volume of 0.4 N perchloric acid was added, followed by incubation on ice for 5 min. Samples were centrifuged at 5,000×g and the supernatant transferred to new microcentrifuge tubes. 100 μL of sample was added to a conical micro-autosampler vial and kept at 4° C. in the autosampler cooling tray. 10 μL of this sample was injected into the HPLC system.
The separation of redox and methylation pathway metabolites was accomplished using an Agilent Eclipse XDB-C8 analytical column (3×150 mm; 3.5 μm) and an Agilent Eclipse XDB-C8 (4.6×12.5 mm; 5 μm) guard column. Two mobile phases were used: Mobile Phase A was 0% acetonitrile, 25 mM sodium phosphate, 1.4 mM 1-octanesulfonic acid, adjusted to pH 2.65 with phosphoric acid. Mobile Phase B was 50% acetonitrile. The flow rate was initially set at 0.6 mL/min and a step gradient was used: 0-9 min 0% B, 9-19 min 50% B, 19-30 min 50% B. The column was then equilibrated with 5% B for 12 min prior to the next run. Temperature was maintained at 27° C. The electrochemical detector was an ESA CoulArray with BDD Analytical cell Model 5040 and the operating potential was set at 1500 mV. Sample concentrations were determined from the peak areas of metabolites using standard calibration curves and ESA-supplied HPLC software. Sample concentrations were normalised against protein content. In some cases samples were diluted in mobile phase as needed or up to 50 μl of sample was injected to assure that thiol levels were within the range of the standard curve.

[4] = system: SH-SY5Y cells; test: Global DNA methylation by MBD-seq; type: cell-based, human; conditions: after BCM-7 exposure
Method: (§2) The changes in SAM/SAH could potentially affect global DNA methylation, influencing the genes involved in various functions. The global DNA methylation levels induced by BCM-7 were investigated using methyl-CpG binding domain (MBD) protein-enriched genome sequencing (MBD-seq) as described previously (Trivedi M., et al., Mol. Pharm. 2014), whereas mRNA translation microarray data was obtained using Agilent V3 microarray chip, from non-treated control SH-SY5Y cells and cells treated for 4 hours with 1 μM BCM-7.
Briefly, genomic DNA was extracted from samples with the Easy DNA kit (Invitrogen K1800-01) using the appropriate protocol for cell lines. Fragmentation was performed on Covaris S2 with the following settings: duty cycle 10%, intensity 5, 200 cycles per burst during 200 sec. Fragments were obtained having an average length of 200 bp. […] DNA with an input from 5-3 3 μg was analysed on the Agilent 2100 using a DNA 1000 chip. […] The concentrations of fragmented and captured DNA were determined on a Fluostar Optima plate reader with the Quant-IT PicoGreen dsDNA Assay Kit (Invitrogen P7589) at 480/520 nm. […]
The Illumina library amplification index protocol was used with the following alterations: 22 μl DNA was used and performed 21 cycles run. […] 1 μl was applied to a Agilent 2100 HS DNA chip and the concentration was determined by smear analysis on the Agilent 2100. […]

[5] = system: SH-SY5Y cells; test: Whole genome mRNA microarray; type: cell-based, human; conditions: FDR<0.1; for differentially expressed transcripts (DETs): cells treated for 4 hours
Method: as §2
For whole genome microarray hybridisations, 500 ng of total RNA from each sample was labelled with fluorescent dye (Cy3; Amersham Biosciences Corp, Piscataway, NJ) using the Low RNA Input Linear Amplification Labelling kit (Agilent Technologies, Palo Alto, CA) following the manufacturer's protocol. The amount and quality of the fluorescently labelled cRNA was assessed using a NanoDrop ND-1000 spectrophotometer and an Agilent Bioanalyzer. According to manufacturer's specifications, […] of Cy3-labeled cRNA was hybridized to the Agilent Human Whole Genome Oligo Microarray (Agilent Technologies, Inc., Palo Alto, CA) for 17 hrs prior to washing and scanning. Data was extracted from scanned images using Feature Extraction Software (Agilent Technologies, Inc., Palo Alto, CA).
Transcripts included both genes and non-coding RNAs that were differentially methylated/transcribed.

[6] = system: colon myeloperoxidase (MPO) activity; test: Colon MPO activity in rats fed A1/A2 diets; type: in vivo, Wistar rats
Method: (§3) Seventy two weaned (four week old) male Wistar rats were used. Following a 7-day acclimatisation period on a control diet, the rats were fed for either 12 or 60 hours with one of three diets: 100% A1 diet, 100% A2 diet, control diet (n=6 per treatment). The protein component of the diets were derived from skim milk (for the A1 and A2 diets) and on egg white (for the non-milk protein control diet), and were balanced for energy and macronutrient composition (see Table 1). Fifteen minutes before the end of the time period, rats received either naloxone or saline (control) via intra-peritoneal injection, and were then orally gavaged with a non-digestible tracer, titanium dioxide. Faecal and urine samples were collected at 7 time points over the following 24 hours, and stored at −20° C. (faecal) or −80° C. (urine) until they were analysed.
(§4) Colon tissue from the rats fed according to Example 1 was quantified for myeloperoxidase (MPO) activity based on an established method (Grisham, M. B., et al., Methods Enzymol., 1990, 186:729-742). Colon tissue (50 mg) was homogenised, partitioned via centrifugation, ruptured by ultrasonic probe and subjected to a freeze-thaw cycle. Endogenous MPO catalyses H2O2-dependent oxidation of 3,3′,5,5′-tetramethyl-benzidine substrate measured colourimetrically at 562 nm. […]

[7] = system: jejunum myeloperoxidase (MPO) activity; test: Jejunum MPO activity in rats fed A1/A2 diets; type: in vivo, Wistar rats; conditions: on consumption of beta-casein A1
Method: as §3, §4
In this example, tissue samples taken from the jejunum were analysed. […]

[8] = system: colon tissue; test: Intestinal histology of colon sections; type: in vivo, Wistar rats; conditions: 60 hour naloxone group, A2-fed versus A1-fed rats, P<0.05
Method: as §3
The procedure used for measuring change in morphology in the gastrointestinal tract of rats is based on histological evaluation of haemoxylin and eosin stained tissue sections under a light microscope (Knoch, B. et al., J. Nutrigenet. Nutrigenomics, 2009, 2(1):9-28 and Barnett, M. P., BMC Immunol., 2010, 11:39). This method was applied to sections derived from colon tissue of rats fed either the 100% A1 or 100% A2 diets to determine the effects of the beta-casein variants on intestinal inflammation.

[9] = neuronal cells, 30 min, 4 h, 24 h

CC[C@H](C)[C@H](NC(=O)[C@@H]1CCCN1C(=O)CNC(=O)[C@@H]1CCCN1C(=O)[C@H](Cc1ccccc1)NC(=O)[C@@H]1CCCN1C(=O)[C@@H](N)Cc1ccc(O)cc1)C(=O)O [BCM-7, beta-casomorphin-7] (H-YPFPGPI-OH; N-terminus and C-terminus assumed)
IC50 [1]: 15.9 nM | receptor mediation of cysteine uptake inhibition ([2]; blockade by selective μ-antagonist (CTAP), not by delta antagonist (NTI)): μ-opioid receptor mediated | time at which inhibition of cysteine uptake was fully developed ([2]; neuronal cells and GI epithelial cells (FIG. 6)): 30 min | IC50 ([2]; read-out: IC50 inhibition of cysteine uptake, neuronal cells): 1.31 nM | ratio of SAM/SAH (methylation capacity) ([3]; different time points): affected | GSH levels [3, 9]: time-dependent decreases | cysteine levels [3, 9]: time-dependent decreases | GSH/GSSG ratio (redox status) ([3]; neuronal cells, over time): decreased | epigenetic status (DNA methylation) of cytokines such as NFkappaB and interleukins such as IL1 [4]: altered | epigenetic status of the MPO gene [4]: alters the epigenetic status | DETs shared by both morphine and BCM-7 [5]: 501 | differentially expressed transcripts (DETs) [5]: 1,467

CN1CC[C@]23c4c5ccc(O)c4O[C@H]2[C@@H](O)C=C[C@H]3[C@H]1C5 [morphine]
cysteine levels [3, 9]: time-dependent decreases | DETs shared by both morphine and BCM-7 [5]: 501 | differentially expressed transcripts (DETs) [5]: 7,592

B1: beta-casein A1 (protein, UniProt P02666 16-224, looked up, variant P67H)
Beta-casein: RELEELNVPGEIVESLSSSEESITRINKKIEKFQSEEQQQTEDELQDKIHPFAQTQSLVYPFPGPIHNSLPQNIPPLTQTPVVVPPFLQPEVMGVSKVKEAMAPKHKEMPFPKYPVEPFTESQSLTLTDVENLHLPLPLLQSWMHQPHQPLPPTVMFPPQSVLSLSQSKVLPVPQKAVPYPQRDMPIQAFLLYQEPVLGPVRGPFPIIV
colon MPO activity ([6]; beta-casein A1-fed rats compared to beta-casein A2-fed rats): increased | effect on colon MPO activity in rats treated with naloxone ([6]; rats treated with naloxone): not observed | inflammation in the small intestine (jejunum MPO) [7]: no observable increase

B2: beta-casein A2 (protein, UniProt P02666 16-224, looked up)
Beta-casein: B1 Beta-casein with H67P
notes: any beta-casein having proline at position 67
histology score [8]: significantly higher score
